Laboratory results as given in patent publication US6413990B1, “Arylsulphonamide-substituted benzimidazoles having tryptase-inhibiting activity” (Boehringer Ingelheim Pharma KG, priority 1999, dated 2002).
Where a name gives a salt, the structure may show the parent alone.

What was measured:
rh beta tryptase = target: T1, rh beta tryptase (Homo sapiens, UniProt Q15661); assay: tryptase inhibition test (cleavage of N-p-tosyl-Gly-Pro-Lys-para-nitroaniline, p-nitroaniline measured at 405 nm); type: biochemical; settings: Tris HCl buffer pH 7.4 with calcium and heparin, 37° C., substrate 0.6 mM, 5 minutes pre-incubation, 5 minutes incubation
T1 construct: purchased Promega
Protocol: The compounds according to the invention are characterised by their tryptase-inhibiting activity. This ability to inhibit tryptase was investigated using the test described below.
The measurement is carried out in Tris HCl buffer (100 mM), which additionally contains calcium (5 mM) and heparin ([…]), at pH 7.4. The standard used is rh beta tryptase which may be obtained commercially from Promega, for example. The substrate used is N-p-tosyl-Gly-Pro-Lys-para-nitroaniline in a concentration of 0.6 mM. The substrate is digested with tryptase to form p-nitroaniline which can be measured at 405 nm. Usually, an incubation period of 5 minutes and an incubation temperature of 37° C. are chosen. The enzyme activity used is 0.91 U/ml. The measurements are carried out in an Autoanalyser (Cobas Bio) made by Hofmann LaRoche. The potential inhibitory substances are used in concentrations of 10 μM in the screening, the inhibition of the tryptase being given in percent. The IC50 is determined at over 70% inhibition (concentration at which 50% of the enzyme activity is inhibited). After 5 minutes pre-incubation of the potential inhibitory substances, the substrate is added to start the reaction, the formation of p-nitroaniline being taken as a measurement of the enzyme activity after 5 minutes, after testing the linearity.
The data obtained after carrying out the tests described above (IC50 values) can be found in Table 2.

T1 sequence (Q15661 31-275): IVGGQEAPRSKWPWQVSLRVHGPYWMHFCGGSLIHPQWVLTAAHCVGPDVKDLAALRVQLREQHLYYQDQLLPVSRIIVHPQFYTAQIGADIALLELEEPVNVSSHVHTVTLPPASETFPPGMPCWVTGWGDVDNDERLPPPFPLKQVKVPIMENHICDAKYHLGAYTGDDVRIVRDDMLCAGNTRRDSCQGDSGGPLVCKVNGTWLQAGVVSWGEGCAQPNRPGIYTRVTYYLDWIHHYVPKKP

Row | SMILES | IC50 (rh beta tryptase) [nM] | melting point [°C]
1 | CN(C)c1cccc2c(S(=O)(=O)N(Cc3ccncc3)c3ccc4c(c3)nc(CCc3ccc(C(=N)N)cc3)n4C)cccc12 [Example 25, N-{2-[2-(4-amidinophenyl)-ethyl]-1-methyl-benzimidazol-5-yl}-N-pyrid-4-ylmethyl-(dansylamide) dihydrochloride] | 36 | –
2 | CCN(CC)CCN(c1ccc2c(c1)nc(CCc1ccc(C(=N)N)cc1)n2C)S(=O)(=O)c1cccc(C)c1 [Example 6, N-{2-[2-(4-amidinophenyl)-ethyl]-1-methyl-benzimidazol-5-yl}-N-diethylaminoethyl-(3-methyl-benzenesulphonamide)-hydrochloride] | 30 | –
3 | CCN(CC)CCN(c1ccc2c(c1)nc(CCc1ccc(C(=N)N)cc1)n2C)S(=O)(=O)c1ccc(C(=O)O)cc1 (as salt: fumarate) [Example 14, N-{2-[2-(4-amidinophenyl)-ethyl]-1-methyl-benzimidazol-5-yl}-N-diethylaminoethyl-[4-carboxy-benzenesulphonamide]-fumarate] | – | 200 to 204
4 | CN(C)c1cccc2c(S(=O)(=O)N(C)c3ccc4c(c3)nc(CCc3ccc(C(=N)N)cc3)n4C)cccc12 (as salt: hydrochloride) [Example 13, N-{2-[2-(4-amidinophenyl)-ethyl]-1-methyl-benzimidazol-5-yl}-N-methyl-(dansylamide)-hydrochloride] | – | 222 to 225
5 | CCN(CC)CCN(c1ccc2c(c1)nc(CCc1ccc(C(=N)N)cc1)n2C)S(=O)(=O)c1ccc2cc(O)ccc2c1 [Example 17, N-{2-[2-(4-amidinophenyl)-ethyl]-1-methyl-benzimidazol-5-yl}-N-2-diethylaminoethyl-(6-hydroxy-naphth-2-ylsulphonamide) dihydrochloride] | 280 | –
6 | CCN(CC)CCN(c1ccc2c(c1)nc(CCc1ccc(C(=N)N)cc1)n2C)S(=O)(=O)c1cccc(Cl)c1 [Example 7, N-{2-[2-(4-amidinophenyl)-ethyl]-1-methyl-benzimidazol-5-yl}-N-diethylaminoethyl-(3-chloro-benzenesulphonamide)-hydrochloride] | 30 | –
7 | Cn1c(CCc2ccc(C(=N)N)cc2)nc2cc(N(Cc3ccccc3)S(=O)(=O)c3ccc(C(C)(C)C)cc3)ccc21 [Example 26, N-{2-[2-(4-amidinophenyl)-ethyl]-1-methyl-benzimidazol-5-yl}-N-benzyl-(4-tert-butyl-benzenesulphonamide) dihydrochloride] | 7.6 | –
8 | CCN(CC)CCN(c1ccc2c(c1)nc(CCc1ccc(C(=N)N)cc1)n2C)S(=O)(=O)c1cc(C(F)(F)F)cc(C(F)(F)F)c1 [Example 16, N-{2-[2-(4-amidinophenyl)-ethyl]-1-methyl-benzimidazol-5-yl}-N-2-diethylaminoethyl-[3,5-di-(trifluoromethyl)-benzenesulphonamide] dihydrochloride] | 25 | –
9 | CCOC(=O)c1ccc(S(=O)(=O)N(CCN(CC)CC)c2ccc3c(c2)nc(CCc2ccc(C(=N)N)cc2)n3C)cc1 [Example 1, N-{2-[2-(4-amidinophenyl)-ethyl]-1-methyl-benzimidazol-5-yl}-N-diethylaminoethyl-(4-ethoxycarbonyl-benzenesulphonamide)-hydrochloride] | 9.7 | –
10 | CCN(CC)CCN(c1ccc2c(c1)nc(CCc1ccc(C(=N)N)cc1)n2C)S(=O)(=O)c1ccc(N)cc1 [Example 8, N-{2-[2-(4-amidinophenyl)-ethyl]-1-methyl-benzimidazol-5-yl}-N-diethylaminoethyl-(4-amino-benzenesulphonamide)-tetrahydrochloride] | 34 | –
11 | CCN(CC)CCN(c1ccc2c(c1)nc(CCc1ccc(C(=N)N)cc1)n2C)S(=O)(=O)c1ccc(N)cc1 (as salt: hydrochloride) [Example 8, N-{2-[2-(4-amidinophenyl)-ethyl]-1-methyl-benzimidazol-5-yl}-N-diethylaminoethyl-(4-amino-benzenesulphonamide)-tetrahydrochloride] | – | 190 to 205
12 | CCN(CC)CCN(c1ccc2c(c1)nc(CCc1ccc(C(N)=NO)cc1)n2C)S(=O)(=O)c1cccc(Br)c1 [Example 36, N-{2-[2-(4-amino-hydroximinomethyl)phenyl-ethyl]-1-methyl-benzimidazol-5-yl}-N-diethylaminoethyl-(3-bromo-benzenesulphonamide)] | – | 156
13 | CCN(CC)CCN(c1ccc2c(c1)nc(CCc1ccc(C(=N)N)cc1)n2C)S(=O)(=O)c1cccc(N)c1 [Example 29, N-{2-[2-(4-amidinophenyl)-ethyl]-1-methyl-benzimidazol-5-yl}-N-2-diethylaminoethyl-(3-amino-benzenesulphonamide) dihydrochloride] | 52 | –
14 | CCN(CC)CCN(c1ccc2c(c1)nc(CCc1ccc(C(=N)N)cc1)n2C)S(=O)(=O)c1ccc2cc(OC)ccc2c1 [Example 27, N-{2-[2-(4-amidinophenyl)-ethyl]-1-methyl-benzimidazol-5-yl}-N-diethylaminoethyl-(6-methoxy-naphth-2-ylsulphonamide) diacetate] | 17.3 | –
15 | CCN(CC)CCN(c1ccc2c(c1)nc(CCc1ccc(C(=N)N)cc1)n2C)S(=O)(=O)c1ccc([N+](=O)[O-])cc1 [Example 4, N-{2-[2-(4-amidinophenyl)-ethyl]-1-methyl-benzimidazol-5-yl}-N-diethylaminoethyl-(4-nitro-benzenesulphonamide)-hydrochloride] | 23 | –
16 | CCN(CC)CCN(c1ccc2c(c1)nc(CCc1ccc(C(=N)N)cc1)n2C)S(=O)(=O)c1ccc(NC(C)=O)cc1 [Example 9, N-{2-[2-(4-amidinophenyl)-ethyl]-1-methyl-benzimidazol-5-yl}-N-diethylaminoethyl-(4-acetylamino-benzenesulphonamide)] | 44 | –
17 | CCN(CC)CCN(c1ccc2c(c1)nc(CCc1ccc(C(=N)N)cc1)n2C)S(=O)(=O)c1cccc(C(C)(C)c2ccccc2)c1 [Example 19, N-{2-[2-(4-amidinophenyl)-ethyl]-1-methyl-benzimidazol-5-yl}-N-2-diethylaminoethyl-[3-(1-methyl-1-phenyl-ethyl)-benzenesulphonamide] dihydrochloride] | 8.8 | –

The remaining compounds from weak to strong by IC50 (rh beta tryptase), led by results:

Row | IC50 (rh beta tryptase) [nM] | melting point [°C] | SMILES
18 | 44 | – | CCN(CC)CCN(c1ccc2c(c1)nc(CCc1ccc(C(=N)N)cc1)n2C)S(=O)(=O)c1cccc([N+](=O)[O-])c1 [Example 28, N-{2-[2-(4-amidinophenyl)-ethyl]-1-methyl-benzimidazol-5-yl}-N-2-diethylaminoethyl-(3-nitro-benzenesulphonamide) dihydrochloride]
19 | 43 | – | CCN(CC)CCN(c1ccc2c(c1)nc(CCc1ccc(C(=N)N)cc1)n2C)S(=O)(=O)c1cccc(C(F)(F)F)c1 [Example 18, N-{2-[2-(4-amidinophenyl)-ethyl]-1-methyl-benzimidazol-5-yl}-N-2-diethylaminoethyl-(3-trifluoromethyl-benzenesulphonamide) dihydrochloride]
20 | 24 | – | CCN(CC)CCN(c1ccc2c(c1)nc(CCc1ccc(C(=N)N)cc1)n2C)S(=O)(=O)c1cccc(OC)c1 [Example 5, N-{2-[2-(4-amidinophenyl)-ethyl]-1-methyl-benzimidazol-5-yl}-N-diethylaminoethyl-(3-methoxy-benzenesulphonamide)-hydrochloride]
21 | 22 | – | CN(C)c1cccc2c(S(=O)(=O)N(CCN)c3ccc4c(c3)nc(CCc3ccc(C(=N)N)cc3)n4C)cccc12 [Example 20, N-{2-[2-(4-amidinophenyl)-ethyl]-1-methyl-benzimidazol-5-yl}-N-aminoethyl-(dansylamide) dihydrochloride]
22 | 17 | – | CCN(CC)CCN(c1ccc2c(c1)nc(CCc1ccc(C(=N)N)cc1)n2C)S(=O)(=O)c1cccc(Br)c1 [Example 3, N-{2-[2-(4-amidinophenyl)-ethyl]-1-methyl-benzimidazol-5-yl}-N-diethylaminoethyl-(3-bromo-benzenesulphonamide)-hydrochloride]
23 | 14 | – | CN(C)c1cccc2c(S(=O)(=O)N(Cc3ccccn3)c3ccc4c(c3)nc(CCc3ccc(C(=N)N)cc3)n4C)cccc12 [Example 22, N-{2-[2-(4-amidinophenyl)-ethyl]-1-methyl-benzimidazol-5-yl}-N-pyrid-2-ylmethyl-(dansylamide) dihydrochloride]
24 | 13 | – | CCN(CC)CCN(c1ccc2c(c1)nc(CCc1ccc(C(=N)N)cc1)n2C)S(=O)(=O)c1cccc2cccc(Cl)c12 [Example 24, N-{2-[2-(4-amidinophenyl)-ethyl]-1-methyl-benzimidazol-5-yl}-N-diethylaminoethyl-(8-chloronaphth-1-ylsulphonamide) dihydrochloride]
25 | 13 | – | CN(C)c1cccc2c(S(=O)(=O)N(Cc3cccnc3)c3ccc4c(c3)nc(CCc3ccc(C(=N)N)cc3)n4C)cccc12 [Example 23, N-{2-[2-(4-amidinophenyl)-ethyl]-1-methyl-benzimidazol-5-yl}-N-pyrid-3-ylmethyl-(dansylamide) dihydrochloride]
26 | 4.1 | – | CCN(CC)CCN(c1ccc2c(c1)nc(CCc1ccc(C(=N)N)cc1)n2C)S(=O)(=O)c1ccc(C(C)(C)C)cc1 [Example 21, N-{2-[2-(4-amidinophenyl)-ethyl]-1-methyl-benzimidazol-5-yl}-N-diethylaminoethyl-(4-tert-butyl-benzenesulphonamide) dihydrochloride]
